Measured values: paper PMC6696315, “Inhibiting Acetylcholinesterase to Activate Pleiotropic Prodrugs with Therapeutic Interest in Alzheimer’s Disease” (Molecules, 2019)

Tests used:
[1] = biological target: T1, (ee)AChE (Electrophorus electricus, UniProt O42275); test: AChE-dependent decarbamoylation (UPLC, LCMS); format: biochemical; conditions: 5 µM, PBS pH 7.4, 24 h
T1 construct: purchased Sigma Aldrich
Protocol: The in vitro decarbamoylation of 20 in the presence of AChE was established according to a new analytical method developed by Alix et al.. A large excess of Electrophorus electricus (eel)AChE was added to a solution of 20 in a phosphate-buffered saline (PBS) buffer (pH 7.4) at 25 °C. After 24 h of incubation, the solution was extracted by ethyl acetate, evaporated and solubilized in acetonitrile, and then analyzed by UPLC and LCMS. Owing to its high homology with the active-site sequence of the human AChE and its commercial availability, (ee)AChE is commonly used for in vitro assays and was chosen for this study.
The HPLC analyses were performed using an Agilent pump 1290, an autosampler 1290 and a diode array UV detector 1260 (Agilent technologies, Santa Clara, CA, USA). A reversed phase column C18 (Zorbax1 Eclipse Plus RRHD, 1.8 µm, 2.1 × 50 mm, Agilent) has been used for all components. A binary pump was used and the mobile phase was always composed of a mixture of (A) water (0.1% formic acid) and (B) acetonitrile (0.1% formic acid). Solutions of compound 19 and 20 were prepared in a PBS buffer (pH 7.4). […] The crude product was submerged in 50 µL of ACN, then analyzed by UPLC and LC-MS.

[2] = biological target: T2, human 5-HT4R (Homo sapiens, UniProt Q13639); test: 5-HT4R radioligand displacement assay ([3H]-GR113808); format: binding
T2 construct: purchased Eurofins HTS110M
T2 sequence (Q13639 whole entry): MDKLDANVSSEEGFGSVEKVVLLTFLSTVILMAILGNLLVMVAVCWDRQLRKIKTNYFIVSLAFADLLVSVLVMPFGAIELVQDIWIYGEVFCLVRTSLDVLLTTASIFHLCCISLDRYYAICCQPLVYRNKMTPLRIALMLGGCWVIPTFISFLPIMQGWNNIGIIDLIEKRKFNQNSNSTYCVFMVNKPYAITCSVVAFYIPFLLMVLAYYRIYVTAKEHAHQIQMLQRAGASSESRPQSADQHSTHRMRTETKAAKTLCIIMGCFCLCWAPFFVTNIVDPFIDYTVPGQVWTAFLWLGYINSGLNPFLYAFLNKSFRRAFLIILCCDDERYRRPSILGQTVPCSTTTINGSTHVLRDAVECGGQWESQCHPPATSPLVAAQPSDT
Protocol: All the synthesized phenolic derivatives and their carbamates were evaluated as potential inhibitors of human AChE, using the Ellman assay, as well as potential ligands for human 5-HT4R using a radioligand displacement assay. […].
For competition studies, 2.5 µg of proteins (5-HT4(b) membrane preparations, HTS110M, Eurofins. Eurofins’ 5-HT4(b) membrane preparations are crude membrane preparations made from their proprietary stable recombinant cell lines to ensure high-level of GPCR surface expression.) were incubated in duplicate at 25 °C for 60 min in the absence or the presence of 10^−6 or 10^−8M of each drug (9 was used as a reference standard) and 0.2 nM [^3H]-GR113808 (NET 1152, Perkin Elmer) in 25 mM Tris buffer (pH 7.4, 25 °C). At the end of the incubation, homogenates were filtered through Whatman GF/C filters (Alpha Biotech) pre-soaked with 0.5% polyethylenimine using a Brandel cell harvester. Filters were subsequently washed three times with 1 mL of ice-cold 25 mM Tris buffer (pH 7.4, 4 °C). Non-specific binding was evaluated in parallel in the presence of 30 µM serotonin. For some of these compounds, affinity constants were calculated from five-point inhibition curves using the GraphPad Prism 6 software and expressed as Ki ± SD.

T1 sequence (O42275 24-633): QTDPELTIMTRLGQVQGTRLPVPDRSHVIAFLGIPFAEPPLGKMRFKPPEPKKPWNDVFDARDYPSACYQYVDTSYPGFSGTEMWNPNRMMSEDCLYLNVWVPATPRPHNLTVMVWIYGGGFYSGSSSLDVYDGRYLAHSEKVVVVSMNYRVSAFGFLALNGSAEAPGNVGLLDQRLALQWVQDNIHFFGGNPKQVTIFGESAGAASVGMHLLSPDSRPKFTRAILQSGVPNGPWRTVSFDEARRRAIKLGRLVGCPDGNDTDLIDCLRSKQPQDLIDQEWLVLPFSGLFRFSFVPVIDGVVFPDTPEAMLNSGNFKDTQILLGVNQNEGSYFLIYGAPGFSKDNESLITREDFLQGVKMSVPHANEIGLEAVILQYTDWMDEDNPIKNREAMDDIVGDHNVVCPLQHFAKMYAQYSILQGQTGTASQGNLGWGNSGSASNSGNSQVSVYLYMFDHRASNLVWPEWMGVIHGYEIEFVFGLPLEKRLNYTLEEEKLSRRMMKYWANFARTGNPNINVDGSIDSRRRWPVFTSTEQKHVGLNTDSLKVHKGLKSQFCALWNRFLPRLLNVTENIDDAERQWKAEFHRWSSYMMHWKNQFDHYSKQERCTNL

In the case of `CCN(C)C(=O)Oc1cccc(CN2CCC(CCC(=O)c3cc(Cl)c(N)cc3OC)CC2)c1.O=C(O)/C=C/C(=O)O` [Compound 20, [3-[[4-[3-(4-Amino-5-chloro-2-methoxyphenyl)-3-oxopropyl]-1-piperidyl]methyl]phenyl] N-ethyl-N-methyl-carbamate fumaric acid salt], the “decarbamoylation in the presence of (ee)AChE” value ([1]; 250 U/mL (ee)AChE) was “decarbamoylation of 20 and release of 4”, the “chemical conversion in PBS buffer without (ee)AChE” value ([1]; negative control) was “not chemically converted into 4” and the “(h)5-HT4R % Inhibition at 10^−8 M” value ([2]; 10^−8 M) was 16%. For the same compound, the 5-HT4R affinity ([2]; result in words) was “devoid of any activity towards 5-HT4R”.
